Experimental data from patent publication US11712434B2, “Compound having anti-cancer effect, and preparation method therefor and use thereof” (3D MEDICINES (BEIJING) CO., LTD., priority 2016, dated 2023).

Tests used:
Experiment in all cases: Cell proliferation assay (Alamar Blue)
Format in all cases: cell-based
SNU886 = SNU886 liver cancer cell line, 6 days culture
Method: (§1) 1. Instruments and Materials • Thermo 311 CO2 incubator; Haier biosafety cabinet; Molecular Devices microplate reader; Xiangyi brand L530 desktop low speed centrifuge; Olympus IX51 inverted fluorescence microscope, DMEM, RPMI 1640, MEM, DMEM/F12 1:1 medium, Fetal bovine serum, 0.25% trypsin solution, phosphate buffer (Thermo Fisher Shanghai Co., Ltd.); sigma dimethyl sulfoxide (DMSO), resazurin; 54 commercial tumor cell lines (including 26 liver cancer cell lines). Experimental drugs: compounds 1-12 and active drug Linifanib; chemotherapeutic drug Doxorubicin (HY-15142; Shanghai Qianyuan Biomedical Technology Co., Ltd.).
(§2) 2. Experimental Methods • 2.1 Cultivation of Different Cell Lines • 54 cell lines were cultured in a culture medium containing fetal bovine serum and placed in a 5% CO2 incubator at 37° C. for incubation. The cells were all grown in an adherent state, and the growth was observed under an inverted microscope, and subculture was performed when the cell confluence rate reached 80%-90%. The proportion and quantity of passage were determined by experimental needs. The ratio of subculture of this cell line was generally 1:2^˜1:3. • 2.2 Inhibition Effect on the Proliferation of Different Tumor Cell Lines • Cell test: 54 cell lines in logarithmic growth phase were inoculated in 96-well culture plates at 500^˜1×10^4/well (the optimal seeding density of each cell line was determined in pre-experiment), After incubating at 37° C. for 4 h in a 5% CO2 humidification incubator, added 10 μL of compounds 1-12 or Linifanib to each well, and tested 9 drug concentration gradients for each compound (diluted from the highest concentration of the test by 3.16 times). The solubility of each compound was different at a starting concentration of 100 or 30 μM, respectively. The QC reference compound Doxorubicin was added simultaneously to each cell line test, and the final drug concentrations were 10, 3.16, 1, 0.31, 0.1, 0.03, 0.01, 0.003, and 0.001 μM, respectively. In addition, a positive control group (100% inhibition) and a negative control group (0% inhibition) were set at the same time. The drug group was repeated for 2 wells per concentration, and the positive control group and the negative control group were repeated for 6 wells. After the culture was continued for 6 days in the incubator, AlamarBlue test operation was followed; • AlamarBlue test procedure: Incubated with 10 μL of AlamarBlue reagent per well for 1-4 h, shook for 1-2 min, MD microplate reader EX: 560 nm, EM: 590 nm wavelength to measure fluorescence, recorded the results, calculated the cell inhibition rate of the compound of the invention. Cell inhibition rate (%)=(A0% inhibition−A administration)/(A0% inhibition−A100% inhibition)×100%, and then using the method of nonlinear regression using GraphPad Prism 5.0 or MATILAB software (usually using four parameters) to graph and obtain a drug dose response curve to obtain an IC50 value of the compound of the present invention acting on a cancer cell line.

K562 = K562 tumor cell line, 6 days culture
Method: as §1, §2

SNU423 = SNU423 liver cancer cell line, 6 days culture
Method: as §1, §2

LNCAP-clone-FGC = LNCAP-clone-FGC tumor cell line, 6 days culture
Method: as §1, §2

HLE = HLE liver cancer cell line, 6 days culture
Method: as §1, §2

JHH6 = JHH6 liver cancer cell line, 6 days culture
Method: as §1, §2

SNU761 = SNU761 liver cancer cell line, 6 days culture
Method: as §1, §2

SNU398 = SNU398 liver cancer cell line, 6 days culture
Method: as §1, §2

KASUMI-1 = KASUMI-1 (leukemia cells), 6 days culture
Method: as §1, §2

T.T = T.T tumor cell line, 6 days culture
Method: as §1, §2

MDA-MB-231 = MDA-MB-231 tumor cell line, 6 days culture
Method: as §1, §2

AN3CA = AN3CA tumor cell line, 6 days culture
Method: as §1, §2

HUH6 = HUH6 liver cancer cell line, 6 days culture
Method: as §1, §2

NCI-H1648 = NCI-H1648 tumor cell line, 6 days culture
Method: as §1, §2

SW620 = SW620 tumor cell line, 6 days culture
Method: as §1, §2

JHH7 = JHH7 liver cancer cell line, 6 days culture
Method: as §1, §2

HUH1 = HUH1 liver cancer cell line, 6 days culture
Method: as §1, §2

SNU739 = SNU739 liver cancer cell line, 6 days culture
Method: as §1, §2

LC-2-ad = LC-2-ad tumor cell line, 6 days culture
Method: as §1, §2

NCI-H716 = NCI-H716 tumor cell line, 6 days culture
Method: as §1, §2

DLD1 = DLD1 tumor cell line, 6 days culture
Method: as §1, §2

SNU387 = SNU387 liver cancer cell line, 6 days culture
Method: as §1, §2

TE-15 = TE-15 tumor cell line, 6 days culture
Method: as §1, §2

TE-6 = TE-6 tumor cell line, 6 days culture
Method: as §1, §2

NCI-H661 = NCI-H661 tumor cell line, 6 days culture
Method: as §1, §2

Alexander cells = Alexander cells liver cancer cell line, 6 days culture
Method: as §1, §2

KM12 = KM12 tumor cell line, 6 days culture
Method: as §1, §2

HLF = HLF liver cancer cell line, 6 days culture
Method: as §1, §2

Compound: Cc1ccc(F)c(NC(=O)Nc2ccc(-c3cccc4[nH]nc(NC(=O)CCCCCNC(=O)C[C@H](N)C(=O)N[C@@H](CCC(=O)O)C(=O)O)c34)cc2)c1 [Compound 4]
- IC50 (SNU886): > 100 µM
- IC50 (K562): > 100 µM
- IC50 (SNU423): > 100 µM
- IC50 (LNCAP-clone-FGC): > 100 µM
- IC50 (HLE): > 100 µM
- IC50 (JHH6): > 100 µM
- IC50 (SNU761): > 100 µM
- IC50 (SNU398): > 100 µM
- IC50 (KASUMI-1): 1.53 µM
- IC50 (T.T): > 100 µM
- IC50 (MDA-MB-231): > 100 µM
- IC50 (AN3CA): 24.9 µM
- IC50 (HUH6): > 100 µM
- IC50 (NCI-H1648): > 100 µM
- IC50 (SW620): > 100 µM
- IC50 (JHH7): > 100 µM
- IC50 (HUH1): > 100 µM
- IC50 (SNU739): > 100 µM
- IC50 (LC-2-ad): > 100 µM
- IC50 (NCI-H716): 82.7 µM
- IC50 (DLD1): > 100 µM
- IC50 (SNU387): > 100 µM
- IC50 (TE-15): > 100 µM
- IC50 (TE-6): > 100 µM
- IC50 (NCI-H661): > 100 µM
- IC50 (Alexander cells): > 100 µM
- IC50 (KM12): > 100 µM
- IC50 (HLF): > 100 µM

Compound: Cc1ccc(F)c(NC(=O)Nc2ccc(-c3cccc4[nH]nc(NC(=O)CCCCCNC(=O)C[C@H](N)C(=O)N[C@@H](CCC(=O)N[C@@H](CCC(=O)N[C@@H](CCC(=O)N[C@@H](CCC(=O)O)C(=O)O)C(=O)O)C(=O)O)C(=O)O)c34)cc2)c1 [Compound 5]
- IC50 (SNU886; SNU-886, 144 h): > 100 µM
- IC50 (K562; Homo sapiens, 144 h): > 100 µM
- IC50 (SNU423; Homo sapiens, SNU-423, 144 h): > 100 µM
- IC50 (LNCAP-clone-FGC; Homo sapiens, 144 h): > 100 µM
- IC50 (HLE; Homo sapiens, 144 h): > 100 µM
- IC50 (JHH6; 144 h): > 100 µM
- IC50 (SNU761; 144 h): > 100 µM
- IC50 (SNU398; Homo sapiens, SNU-398, 144 h): > 100 µM
- IC50 (KASUMI-1; Homo sapiens, 144 h): 4.26 µM
- IC50 (T.T; Homo sapiens, TT, 144 h): > 100 µM
- IC50 (MDA-MB-231; Homo sapiens, 144 h): > 100 µM
- IC50 (AN3CA; Homo sapiens, AN3-CA, 144 h): 41.4 µM
- IC50 (HUH6; Homo sapiens, HuH-6, 144 h): > 100 µM
- IC50 (NCI-H1648; Homo sapiens, 144 h): > 100 µM
- IC50 (SW620; Homo sapiens, SW-620, 144 h): > 100 µM
- IC50 (JHH7; 144 h): > 100 µM
- IC50 (HUH1; Homo sapiens, HuH-1, 144 h): > 100 µM
- IC50 (SNU739; SNU-739, 144 h): > 100 µM
- IC50 (LC-2-ad; Homo sapiens, 144 h): > 100 µM
- IC50 (NCI-H716; Homo sapiens, 144 h): > 100 µM
- IC50 (DLD1; Homo sapiens, DLD-1, 144 h): > 100 µM
- IC50 (SNU387; Homo sapiens, SNU-387, 144 h): > 100 µM
- IC50 (TE-15; Homo sapiens, 144 h): > 100 µM
- IC50 (TE-6; Homo sapiens, 144 h): > 100 µM
- IC50 (NCI-H661; Homo sapiens, 144 h): > 100 µM
- IC50 (Alexander cells; 144 h): > 100 µM
- IC50 (KM12; Homo sapiens, 144 h): > 100 µM
- IC50 (HLF; 144 h): > 100 µM

Compound: Cc1ccc(F)c(NC(=O)Nc2ccc(-c3cccc4[nH]nc(NC(=O)CCCCCCCCCCCNC(=O)C[C@H](N)C(=O)N[C@@H](CCC(=O)O)C(=O)O)c34)cc2)c1 [Compound 7]
- IC50 (SNU886): 75.2 µM
- IC50 (K562): > 100 µM
- IC50 (SNU423): > 100 µM
- IC50 (LNCAP-clone-FGC): 95.5 µM
- IC50 (HLE): 88.3 µM
- IC50 (JHH6): > 100 µM
- IC50 (SNU761): > 100 µM
- IC50 (SNU398): > 100 µM
- IC50 (KASUMI-1): 0.23 µM
- IC50 (T.T): > 100 µM
- IC50 (MDA-MB-231): > 100 µM
- IC50 (AN3CA): 3.84 µM
- IC50 (HUH6): > 100 µM
- IC50 (NCI-H1648): > 100 µM
- IC50 (SW620): 56.3 µM
- IC50 (JHH7): 63.4 µM
- IC50 (HUH1): > 100 µM
- IC50 (SNU739): > 100 µM
- IC50 (LC-2-ad): 46.4 µM
- IC50 (NCI-H716): 41.6 µM
- IC50 (DLD1): > 100 µM
- IC50 (SNU387): > 100 µM
- IC50 (TE-15): > 100 µM
- IC50 (TE-6): > 100 µM
- IC50 (NCI-H661): > 100 µM
- IC50 (Alexander cells): > 100 µM
- IC50 (KM12): 79.1 µM
- IC50 (HLF): 72.6 µM
